The record followed here is PubChem BioAssay AID1259408 (Genetic Toxicology Data Bank (GENE-TOX), 2018).

Active and inactive are the calls of the source. How the calls were made is not given here.

The data set has as its system GENE-TOX genotoxicity assays, various organisms and cells. The experiment in a line: GENE-TOX mutagenicity studies. The note with it: for call: Assay Type: In vivo carcinogenicity studies, Assay Code: CCG+.
Setting [1] is: Species/Cell Type: Salmonella typhimurium, Assay Type: Forward and reverse gene mutation, host-mediated assay, Assay Code: HMA-, Evaluation Type: Evaluation A (Pre-1980).
Where [2] appears, read: Species/Cell Type: Nonhuman, Evaluation Type: Evaluation A (Pre-1980).
Where [3] appears, read: Species/Cell Type: Salmonella typhimurium (one or more of the five standard strains: TA98, TA100, TA1535, TA1537, and TA1538), Assay Type: Histidine reverse gene mutation, Ames assay, Assay Code: SAL+, Evaluation Type: Evaluation A (Pre-1980).
Where [4] appears, read: Species/Cell Type: Nonhuman, Assay Type: Sister-chromatid exchange (SCE) in vitro, Assay Code: SC2+D, Dose Response: With dose response, Evaluation Type: Evaluation B (Post-1980).
Where [5] appears, read: Species/Cell Type: Salmonella typhimurium (one or more of the five standard strains: TA98, TA100, TA1535, TA1537, and TA1538), Assay Type: Histidine reverse gene mutation, Ames assay, Assay Code: SAL+*, Activation: With metabolic activation, Evaluation Type: Evaluation A (Pre-1980).

For the molecule `CCCCNC(=O)n1c(NC(=O)OC)nc2ccccc21`, the mutagenic call is “active; positive” (Species/Cell Type: Allium cepa, Assay Type: Chromosome aberrations, Assay Code: ALC+, Evaluation Type: Evaluation A (Pre-1980)); “active; positive” (Species/Cell Type: Aspergillus nidulans, Assay Type: Aneuploidy, chromosome aberrations, Assay Code: ASN+, Evaluation Type: Evaluation A (Pre-1980)); “inactive; negative” (Species/Cell Type: Aspergillus nidulans, Assay Type: Mitotic recombination, Assay Code: ASG-, Evaluation Type: Evaluation A (Pre-1980)); “no conclusion” (Species/Cell Type: Escherichia coli WP2, Assay Type: Tryptophan reverse gene mutation, Assay Code: WP2T, Evaluation Type: Evaluation A (Pre-1980)); “active; positive” (Species/Cell Type: Escherichia coli WP2 UVRA, Assay Type: Tryptophan reverse gene mutation, Assay Code: WPU+, Evaluation Type: Evaluation A (Pre-1980)); “inactive; negative” (Species/Cell Type: Saccharomyces cerevisiae, Assay Type: Mitotic recombination or gene conversion, Assay Code: YEC-, Evaluation Type: Evaluation A (Pre-1980)). Besides, the mutagenic call under setting [1] was “inactive; negative”.
As to `CN(C)/C=N/c1nnc(/C=C/c2ccc([N+](=O)[O-])o2)o1`, under setting [2], the call is “active; positive”. Besides, the mutagenic call under setting [3] is “active; positive”.
As for `O=C1NCCN1c1ncc([N+](=O)[O-])s1`, the mutagenic call is, setting by setting: (Species/Cell Type: Escherichia coli WP2, Assay Type: Tryptophan reverse gene mutation, Assay Code: WP2+D, Dose Response: With dose response, Evaluation Type: Evaluation A (Pre-1980)) “active; positive”; (Species/Cell Type: Escherichia coli WP2 UVRA, Assay Type: Tryptophan reverse gene mutation, Assay Code: WPU+D, Dose Response: With dose response, Evaluation Type: Evaluation A (Pre-1980)) “active; positive”; (Species/Cell Type: Human, Sex: Male, Assay Type: Sperm morphology, Assay Code: SPH-, Evaluation Type: Evaluation A (Pre-1980)) “inactive; negative”; (Species/Cell Type: Neurospora crassa, Assay Type: Forward gene mutation, Assay Code: NEF+, Evaluation Type: Evaluation A (Pre-1980)) “active; positive”; (Species/Cell Type: Saccharomyces cerevisiae, Assay Type: Mitotic recombination or gene conversion, Assay Code: YEH+, Evaluation Type: Evaluation A (Pre-1980)) “active; positive”; under setting [3], “active; positive”. Under setting [2], the call is “active; positive”.
As for `CO[C@@]12[C@H](CO)C3=C(C(=O)C(C)=C(N)C3=O)N1C[C@@H]1N[C@@H]12`, the mutagenic call runs as follows: (Species/Cell Type: Human lymphocytes, Assay Type: Sister-chromatid exchange (SCE) in vitro, Assay Code: SCL+D, Dose Response: With dose response, Evaluation Type: Evaluation B (Post-1980)) “active; positive”; (Species/Cell Type: Human, Assay Type: Sister-chromatid exchange (SCE) in vitro, Assay Code: SC1+D, Dose Response: With dose response, Evaluation Type: Evaluation B (Post-1980)) “active; positive”; under setting [4], “active; positive”.
Turning to `CN(C)CCCN1c2ccccc2Sc2ccc(C(F)(F)F)cc21`, the mutagenic call reads like this: (Species/Cell Type: Nonhuman bone marrow, Assay Type: Chromosome aberrations, in vivo, Assay Code: CY#-, Evaluation Type: Evaluation A (Pre-1980)) “inactive; negative”; (Species/Cell Type: Nonhuman, Assay Type: Chromosome aberrations in vitro, Assay Code: CY&+, Evaluation Type: Evaluation A (Pre-1980)) “active; positive”; (Species/Cell Type: Rodents, Sex: Male, Assay Type: Dominant lethal test, Assay Code: DLT+, Evaluation Type: Evaluation A (Pre-1980)) “active; positive”; under setting [1], “inactive; negative”.
`O=C(O)[C@H]1O[C@@H](N(O)c2ccc(-c3ccccc3)cc2)[C@H](O)[C@@H](O)[C@@H]1O`: the mutagenic call under setting [3] is “active; positive”.
For `CCc1cn([C@H]2C[C@H](O)[C@@H](CO)O2)c(=O)[nH]c1=O`, the mutagenic call runs as follows: (Species/Cell Type: Drosophila melanogaster, Assay Type: Sex-linked recessive lethal gene mutation, Assay Code: SRLT, Evaluation Type: Evaluation A (Pre-1980)) “no conclusion”; (Species/Cell Type: Drosophila melanogaster, Sex: Male, Assay Type: Heritable translocation test, chromosome aberrations, Assay Code: DHTT, Evaluation Type: Evaluation A (Pre-1980)) “no conclusion”; (Species/Cell Type: Human lymphocytes, Assay Type: Sister-chromatid exchange (SCE) in vitro, Assay Code: SCLT, Evaluation Type: Evaluation B (Post-1980)) “no conclusion”; (Species/Cell Type: Human, Assay Type: Sister-chromatid exchange (SCE) in vitro, Assay Code: SC1T, Evaluation Type: Evaluation B (Post-1980)) “no conclusion”.
As to `CN(N=O)C(=O)Oc1cccc2c1OC(C)(C)C2`, under setting [4], the mutagenic call is “active; positive”.
For the molecule `OC1c2ccccc2C2OC2[C@H]1O` (stereo partly drawn), the mutagenic call (Species/Cell Type: Escherichia coli polA (W3119 vs P3478), Assay Type: Rec-assay, DNA effects (bacterial DNA repair), Assay Code: RE1+, Evaluation Type: Evaluation A (Pre-1980)) was “active; positive”.
On to `COC(=O)[C@H]1[C@H]2C[C@@H]3c4[nH]c5cc(OC)ccc5c4CCN3C[C@H]2C[C@@H](OC(=O)c2cc(OC)c(OC)c(OC)c2)[C@@H]1OC`, for which the mutagenic call (Species/Cell Type: Aspergillus nidulans, Assay Type: Aneuploidy, chromosome aberrations, Assay Code: ASNT, Evaluation Type: Evaluation A (Pre-1980)) was “no conclusion”. Moreover, the call under setting [2] is “active; positive”.
As for `Cc1cc(-c2ccccc2C)ccc1N`, the mutagenic call runs as follows: (Species/Cell Type: Escherichia coli polA (W3110 vs P3478), Assay Type: Rec-assay, DNA effects (bacterial DNA repair), Assay Code: RE2+, Evaluation Type: Evaluation A (Pre-1980)) “active; positive”; (Species/Cell Type: Escherichia coli polA (W3119 vs P3478), Assay Type: Rec-assay, DNA effects (bacterial DNA repair), Assay Code: RE1T, Evaluation Type: Evaluation A (Pre-1980)) “no conclusion”; (Species/Cell Type: Rat primary hepatocytes, Assay Type: Unscheduled DNA synthesis (UDS) in vitro, DNA effects, Assay Code: UDP+, Evaluation Type: Evaluation A (Pre-1980)) “active; positive”; (Species/Cell Type: Saccharomyces cerevisiae, Assay Type: Mitotic recombination or gene conversion, Assay Code: YEH-, Evaluation Type: Evaluation A (Pre-1980)) “inactive; negative”; under setting [5], “active; positive”; (Species/Cell Type: Salmonella typhimurium, Assay Type: Forward and reverse gene mutation, body fluid assay, Assay Code: BFU+, Evaluation Type: Evaluation A (Pre-1980)) “active; positive”. Besides, the mutagenic call is “active; positive” (Species/Cell Type: Salmonella typhimurium, Assay Type: Forward and reverse gene mutation, host-mediated assay, Assay Code: HMA+, Evaluation Type: Evaluation A (Pre-1980)); “active; positive” (Species/Cell Type: Syrian hamster embryo (SHE) cells, Assay Type: Cell transformation, clonal assay, Assay Code: CTC+D, Dose Response: With dose response, Evaluation Type: Evaluation A (Pre-1980)).
Turning to `O=C1c2ccccc2C(=O)c2c1cc(O[C@H]1O[C@H](CO[C@@H]3OC[C@@H](O)[C@H](O)[C@H]3O)[C@@H](O)[C@H](O)[C@H]1O)c(CO)c2O`, under setting [5], the mutagenic call was “active; positive”.
`OC1C=Cc2c(c3cc4ccccc4cc3c3ccccc23)[C@H]1O` (stereo partly drawn): the mutagenic call under setting [4] is “active; positive”.
`O=C1C=C(N2CC2)c2ccccc2C1=O`: the mutagenic call (Species/Cell Type: Drosophila melanogaster, Assay Type: Sex-linked recessive lethal gene mutation, Assay Code: SRL+, Evaluation Type: Evaluation A (Pre-1980)) is “active; positive”.
